This test concerns LLC-Ep tumors. Kind of test: LLC-Ep subcutaneous tumor growth in C57BL/6 mice (Example 6). Type of test: in vivo. As to conditions: after treatment for 22 days; fusion protein 25 μg/mouse i.v., 5 daily injections; indomethacin 20 μg/mL in drinking water. On the procedure:
Female C57B1/6 mice were injected subcutaneously in the mid-back with LLC-Ep cells (2×10^6 cells per injection). When the tumors reached 600-1200 mm^3, the mice were sacrificed. The skin overlying the tumor was cleaned with betadine and ethanol, the tumors excised and necrotic tissue discarded. A suspension of tumor cells in phosphate buffered saline was prepared by passing viable tumor tissue through a sieve and then through a series of sequentially smaller […] needles of 22- to 30-gauge. The cells were adjusted to a concentration of 1×10^7 cells/mL and placed on ice. C57BL/6 mice then were injected with 0.1 mL of the freshly resuspended cells (1×10^6 cells/mouse) in the proximal midline of the subcutaneous dorsa.
When the tumors reached 100-200 mm^3 in size (about 7 to 14 days), the mice were randomized into four groups, 5 mice per group. Group 1 received intravenous injections of 0.2 mL of PBS daily. Group 2 received 5 daily intravenous injections of huKS-huγ1-huIL2 (25 μg/mouse) in PBS. Group 3 received indomethacin orally in drinking water (20 μg/mL, or about 60-70 μg of indomethacin consumed daily per mouse) throughout the treatment period. Group 4 received 5 daily intravenous injections of huKS-huγ1-huIL2(25 μg/mouse), and indomethacin orally in drinking water (20 μg/mL) throughout the treatment period. Tumor volumes were measured as described in Example 3. […]

On to `COc1ccc2c(c1)c(CC(=O)O)c(C)n2C(=O)c1ccc(Cl)cc1` [indomethacin], for which the T/C ratio is recorded as 0.60.

Source of the values: patent US20040180035A1, “IL-15 immunoconjugates and uses thereof” (EMD Lexigen Research Center Corp., priority 1998, published 2004).
